How the values were obtained:
Format in all cases: cell-based
NCI-H1299 = test: MTS assay (cell growth inhibition), NCI-H1299; conditions: NCI-H1299 cells, 72 hours incubation with test compound; concentration not given
Protocol: (§1) Cells were maintained at 37° C., 5% CO2 in DMEM media supplemented with 1% fetal bovine serum, penicillin/streptomycin and fungizone (Invitrogen). Cells were seeded into 96-well tissue culture plates at 3000 per well and cultured at 37° C. for 18 hours. Test compounds were dissolved and diluted to 300× in DMSO then diluted 1:40 in DMEM. Cells were incubated with test compounds for 72 hours followed by incubation with tetrazolium compound (3-(4,5-dimethylthiazol-2-yl)-5-(3-carboxymethoxyphenyl)-2-(4-sulfophenyl)-2H-tetrazolium, inner salt; MTS) and the electron coupling reagent, phenazine methosulfate (PMS) for 4 hours. […] The ability of compounds to inhibit cell growth in this assay is correlated with the reduction of dehydrogenase enzyme activity found in metabolically active cells. The measurement of the absorbance of the formazan was assessed using an ENVISION™ (Perkin Elmer) microplate reader at 492 nm. The calculated IC50 value is the concentration of the test compound that causes a 50% decrease in the absorbance.

Kato III = test: MTS assay (cell growth inhibition), Kato III; conditions: Kato III cells, 72 hours incubation with test compound; concentration not given
Protocol: as §1

PACA-2 = test: MTS assay (cell growth inhibition), PACA-2; conditions: PACA-2 cells, 72 hours incubation with test compound; concentration not given
Protocol: as §1

MDA-MB = test: MTS assay (cell growth inhibition), MDA-MB; conditions: MDA-MB cells, 72 hours incubation with test compound; concentration not given
Protocol: as §1

DLD-1 = test: MTS assay (cell growth inhibition), DLD-1; conditions: DLD-1 cells, 72 hours incubation with test compound; concentration not given
Protocol: as §1

PC-3 = test: MTS assay (cell growth inhibition), PC-3; conditions: PC-3 cells, 72 hours incubation with test compound; concentration not given
Protocol: as §1

## O=C1c2cnc3[nH]ncc3c2C(=O)N1Cc1cccc(I)c1 [Example 101, 7-(3-iodobenzyl)pyrazolo[3,4-b]pyrrolo[3,4-d]pyridine-6,8(3H,7H)-dione]
NCI-H1299
  MTS CELL KILL DATA (% INHIBITION) NCI-H1299: C (C = <50% INHIBITION)
Kato III
  MTS CELL KILL DATA (% INHIBITION) Kato III: A (A = 80-100% INHIBITION)
PACA-2
  MTS CELL KILL DATA (% INHIBITION) PACA-2: C (C = <50% INHIBITION)
MDA-MB
  MTS CELL KILL DATA (% INHIBITION) MDA-MB: A (A = 80-100% INHIBITION)
DLD-1
  MTS CELL KILL DATA (% INHIBITION) DLD-1: B (B = 50-79% INHIBITION)
PC-3
  MTS CELL KILL DATA (% INHIBITION) PC-3: A (A = 80-100% INHIBITION)

## O=C1c2cnc3[nH]nc(-c4cc5ccccc5o4)c3c2C(=O)N1CCc1ccccc1 [Example 158, 1-(1-benzofuran-2-yl)-7-(2-phenylethyl)pyrazolo[3,4-b]pyrrolo[3,4-d]pyridine-6,8(3H,7H)-dione]
NCI-H1299
  MTS CELL KILL DATA (% INHIBITION) NCI-H1299: A (A = 80-100% INHIBITION)
Kato III
  MTS CELL KILL DATA (% INHIBITION) Kato III: A (A = 80-100% INHIBITION)
PACA-2
  MTS CELL KILL DATA (% INHIBITION) PACA-2: C (C = <50% INHIBITION)
MDA-MB
  MTS CELL KILL DATA (% INHIBITION) MDA-MB: B (B = 50-79% INHIBITION)
DLD-1
  MTS CELL KILL DATA (% INHIBITION) DLD-1: B (B = 50-79% INHIBITION)
PC-3
  MTS CELL KILL DATA (% INHIBITION) PC-3: B (B = 50-79% INHIBITION)

## O=C1c2cnc3[nH]ncc3c2C(=O)N1Cc1ccc(F)c(F)c1F [Example 20, 7-(2,3,4-trifluorobenzyl)pyrazolo[3,4-b]pyrrolo[3,4-d]pyrindine-6,8(3H,7H)-dione]
NCI-H1299
  MTS CELL KILL DATA (% INHIBITION) NCI-H1299: C (C = <50% INHIBITION)
Kato III
  MTS CELL KILL DATA (% INHIBITION) Kato III: C (C = <50% INHIBITION)
PACA-2
  MTS CELL KILL DATA (% INHIBITION) PACA-2: C (C = <50% INHIBITION)
MDA-MB
  MTS CELL KILL DATA (% INHIBITION) MDA-MB: A (A = 80-100% INHIBITION)
DLD-1
  MTS CELL KILL DATA (% INHIBITION) DLD-1: C (C = <50% INHIBITION)
PC-3
  MTS CELL KILL DATA (% INHIBITION) PC-3: A (A = 80-100% INHIBITION)

## CCCC(C)CCN1C(=O)c2cnc3[nH]ncc3c2C1=O (stereo not drawn) [Example 114, 7-(3-methylhexyl)pyrazolo[3,4-b]pyrrolo[3,4-d]pyridine-6,8(3H,7H)-dione]
NCI-H1299
  MTS CELL KILL DATA (% INHIBITION) NCI-H1299: C (C = <50% INHIBITION)
Kato III
  MTS CELL KILL DATA (% INHIBITION) Kato III: C (C = <50% INHIBITION)
PACA-2
  MTS CELL KILL DATA (% INHIBITION) PACA-2: C (C = <50% INHIBITION)
MDA-MB
  MTS CELL KILL DATA (% INHIBITION) MDA-MB: A (A = 80-100% INHIBITION)
DLD-1
  MTS CELL KILL DATA (% INHIBITION) DLD-1: C (C = <50% INHIBITION)
PC-3
  MTS CELL KILL DATA (% INHIBITION) PC-3: B (B = 50-79% INHIBITION)

## CSc1cccc(-c2n[nH]c3ncc4c(c23)C(=O)N(CCc2ccccc2)C4=O)c1 [Example 159, 1-[3-(methylsulfanyl)phenyl]-7-(2-phenylethyl)pyrazolo[3,4-b]pyrrolo[3,4-d]pyridine-6,8(3H,7H)-dione]
NCI-H1299
  MTS CELL KILL DATA (% INHIBITION) NCI-H1299: A (A = 80-100% INHIBITION)
Kato III
  MTS CELL KILL DATA (% INHIBITION) Kato III: A (A = 80-100% INHIBITION)
PACA-2
  MTS CELL KILL DATA (% INHIBITION) PACA-2: A (A = 80-100% INHIBITION)
MDA-MB
  MTS CELL KILL DATA (% INHIBITION) MDA-MB: A (A = 80-100% INHIBITION)
DLD-1
  MTS CELL KILL DATA (% INHIBITION) DLD-1: A (A = 80-100% INHIBITION)
PC-3
  MTS CELL KILL DATA (% INHIBITION) PC-3: A (A = 80-100% INHIBITION)

## COc1ccc(CN2C(=O)c3cnc4[nH]ncc4c3C2=O)c(Cl)c1 [Example 109, 7-(2-chloro-4-methoxybenzyl)pyrazolo[3,4-b]pyrrolo[3,4-d]pyridine-6,8(3H,7H)-dione]
NCI-H1299
  MTS CELL KILL DATA (% INHIBITION) NCI-H1299: A (A = 80-100% INHIBITION)
Kato III
  MTS CELL KILL DATA (% INHIBITION) Kato III: A (A = 80-100% INHIBITION)
PACA-2
  MTS CELL KILL DATA (% INHIBITION) PACA-2: A (A = 80-100% INHIBITION)
MDA-MB
  MTS CELL KILL DATA (% INHIBITION) MDA-MB: A (A = 80-100% INHIBITION)
DLD-1
  MTS CELL KILL DATA (% INHIBITION) DLD-1: A (A = 80-100% INHIBITION)
PC-3
  MTS CELL KILL DATA (% INHIBITION) PC-3: A (A = 80-100% INHIBITION)

## Cc1ccc(OCCN2C(=O)c3cnc4[nH]ncc4c3C2=O)cc1 [Example 125, 7-[2-(4-methylphenoxy)ethyl]pyrazolo[3,4-b]pyrrolo[3,4-d]pyridine-6,8(3H,7H)-dione]
NCI-H1299
  MTS CELL KILL DATA (% INHIBITION) NCI-H1299: C (C = <50% INHIBITION)
Kato III
  MTS CELL KILL DATA (% INHIBITION) Kato III: C (C = <50% INHIBITION)
PACA-2
  MTS CELL KILL DATA (% INHIBITION) PACA-2: A (A = 80-100% INHIBITION)
MDA-MB
  MTS CELL KILL DATA (% INHIBITION) MDA-MB: A (A = 80-100% INHIBITION)
DLD-1
  MTS CELL KILL DATA (% INHIBITION) DLD-1: C (C = <50% INHIBITION)
PC-3
  MTS CELL KILL DATA (% INHIBITION) PC-3: A (A = 80-100% INHIBITION)
